The values below come from patent US11453632B2, “1-phenyl-2-phenylethane derivative” (KAO CORPORATION, priority 2018, dated 2022).

Test [1] addresses T1, ERβ LBD (Homo sapiens, UniProt Q92731).
T1 construct: host or cells: HEK293
Nature of the test: Ability to bind to ERβ: pBIND-ERβ LBD / GAL4 luciferase reporter in HEK293 cells. It is filed as cell-based. Set-up: key: RLU = firefly luminescence / Renilla luminescence. The conditions noted are these: negative control 0.0118997. The procedure: This evaluation system is a system exploiting difference in the sequence of the ligand binding domain (LBD) between ERα and ERβ (J Endocrinol 163: 379-383 (1999)), and enables selective activation of ERβ to be evaluated by determining the binding of a ligand to LBD and the activation of ER.
(§1) A human kidney-derived cell line HEK293 was cultured (37° C., 5% CO2) in Dulbecco's modified Eagle medium (hereinafter, abbreviated to DMEM) containing 10% (v/v) fetal bovine serum (FBS) and penicillin/streptomycin.
(§2) 2) Measurement of Binding Activity Against ERs
(§3) This measurement was carried out according to the method described in JP-B-5990058. Specifically, HEK293 cells were inoculated at a cell density of 4.0×10^4 cells/well to a 96-well plate. After 12 hours therefrom, the medium was replaced with a culture solution (DMEM containing 5% (v/v) charcoal-treated serum). The cells were cotransfected with pBIND-ERα for the expression of ERα LBD or pBIND-ERβ for the expression of ERβ LBD (Promega Corp.) and pGL4.35[luc2P/9XGAL4UAS/Hygro](Promega Corp.) using Lipofectamine 2000 (Invitrogen Corp.) according to the protocol attached to the product. 24 hours after transfection, the medium was replaced with a culture solution containing a test sample, followed by culture for another 24 hours. The activity measurement of firefly luciferase (index for the ligand binding activity of ER) and Renilla reniformis luciferase (index for the transfection efficiency of the plasmids) was carried out using Dual-Glo™ Luciferase Assay System (Promega Corp.) according to the attached protocol. The luminescence intensity of the firefly luciferase was divided by the luminescence intensity of the Renilla reniformis luciferase to calculate a relative light unit (RLU).
(In general: A reporter such as luciferase makes a cellular process visible.)

The target in test [2] is T2, ERα LBD (Homo sapiens, UniProt P03372).
T2 construct: host or cells: HEK293
T2 sequence (P03372 311-547 limits assumed): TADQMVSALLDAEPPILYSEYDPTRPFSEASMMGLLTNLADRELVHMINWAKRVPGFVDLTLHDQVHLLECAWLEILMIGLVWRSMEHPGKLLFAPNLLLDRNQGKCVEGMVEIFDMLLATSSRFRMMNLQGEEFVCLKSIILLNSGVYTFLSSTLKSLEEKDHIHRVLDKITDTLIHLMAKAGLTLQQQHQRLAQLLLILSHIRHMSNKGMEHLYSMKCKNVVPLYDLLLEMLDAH
Nature of the test: Ability to bind to ERα: pBIND-ERα LBD / GAL4 luciferase reporter in HEK293 cells. It is filed as cell-based. On the set-up: key: firefly luciferase / Renilla luciferase luminescence ratio. The conditions noted are these: negative control 0.00847035. As for the experimental part:
as §1, §2
as §3, with “Specifically,” for “This measurement was carried out according to the method described in JP-B-5990058. Specifically,”

T1 sequence (Q92731 264-498 limits assumed): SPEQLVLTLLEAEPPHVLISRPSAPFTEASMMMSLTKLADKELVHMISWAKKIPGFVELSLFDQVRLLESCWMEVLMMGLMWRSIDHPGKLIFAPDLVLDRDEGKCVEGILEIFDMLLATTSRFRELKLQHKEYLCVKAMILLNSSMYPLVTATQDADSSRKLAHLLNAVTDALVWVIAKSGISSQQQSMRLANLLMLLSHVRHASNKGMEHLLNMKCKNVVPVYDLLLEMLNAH

In the case of `CCC(C)C(Cc1ccc(O)cc1)c1ccc(O)cc1` (centres unmarked) [Compound 6, 4,4′-(3-methylpentane-1,2-diyl)diphenol], the “relative light unit (RLU), ligand binding activity ERβ” value in test [1] (1 nM) is 0.01046; in test [1] (10 nM), 0.02031; in test [1] (100 nM), 0.2041. Further, the “relative light unit (RLU), ligand binding activity ERα” value is reported as 0.008097 in test [2] (1 nM), 0.01098 in test [2] (10 nM) and 0.01183 in test [2] (100 nM).
Turning to `Oc1ccc(C(C=C(Cl)Cl)Cc2c(F)cc(O)cc2F)cc1` (centres unmarked) [Compound 18-Cl, 4-(4,4-dichloro-2-(4-hydroxyphenyl)but-3-en-1-yl)-3,5-difluorophenol], the “relative light unit (RLU), ligand binding activity ERβ” value in test [1] (0.01 nM) turned out to be 0.07422; in test [1] (0.1 nM), 0.4259; in test [1] (1 nM), 1.819; in test [1] (10 nM), 1.997; in test [1] (100 nM) it was 2.261. The “relative light unit (RLU), ligand binding activity ERα” value in test [2] (0.01 nM) came out at 0.0398; in test [2] (0.1 nM), 0.04255; in test [2] (1 nM), 0.122; in test [2] (10 nM), 2.2626; in test [2] (100 nM) it was 3.229.
Take `Oc1ccc(CC(c2ccc(O)cc2)c2ncon2)cc1` (centres unmarked) [Compound 14, 4,4′-(1-(1,2,4-oxadiazol-3-yl)ethane-1,2-diyl)diphenol]: the “relative light unit (RLU), ligand binding activity ERβ” value in test [1] (0.01 nM) turned out to be 0.02708; in test [1] (0.1 nM), 0.02188; in test [1] (1 nM) it was 0.02069; in test [1] (10 nM), 0.08851; in test [1] (100 nM) it was 0.9946. In addition, the “relative light unit (RLU), ligand binding activity ERα” value in test [2] (0.01 nM) came to 0.01031; in test [2] (0.1 nM), 0.01495; in test [2] (1 nM), 0.02004; in test [2] (10 nM), 0.01493; in test [2] (100 nM), 0.02047.
In the case of `CC=CC(Cc1ccc(O)cc1)c1ccc(O)cc1` (centres unmarked) [Compound 5, 4,4′-(pent-3-ene-1,2-diyl)diphenol], the “relative light unit (RLU), ligand binding activity ERβ” value in test [1] (0.01 nM) came to 0.01699; in test [1] (0.1 nM), 0.1395; in test [1] (1 nM), 0.9744; in test [1] (10 nM) it was 1.153; in test [1] (100 nM), 1.216. In addition, the “relative light unit (RLU), ligand binding activity ERα” value in test [2] (1 nM) amounted to 0.006803; in test [2] (10 nM), 0.008307; in test [2] (100 nM) it was 0.319.
For the molecule `Oc1ccc(CC(C=C(Cl)Cl)c2ccc(O)cc2F)c(F)c1` (centres unmarked) [Compound 17-Cl, 4,4′-(4,4-dichlorobut-3-ene-1,2-diyl)bis(3-fluorophenol)], the “relative light unit (RLU), ligand binding activity ERβ” value in test [1] (0.01 nM) is 0.04108; in test [1] (0.1 nM) it was 0.116; in test [1] (1 nM) it was 1.22; in test [1] (10 nM) it was 1.682; in test [1] (100 nM), 2.029. Moreover, the “relative light unit (RLU), ligand binding activity ERα” value was 0.03467 in test [2] (0.01 nM); 0.03125 in test [2] (0.1 nM); 0.05395 in test [2] (1 nM); 0.92 in test [2] (10 nM); 2.707 in test [2] (100 nM).
`Oc1ccc(CC(C=CF)c2ccc(O)cc2)cc1` (centres unmarked) [Compound 8, 4,4′-(4-fluorobut-3-ene-1,2-diyl)diphenol]: the “relative light unit (RLU), ligand binding activity ERβ” value was 0.01223 in test [1] (0.01 nM); 0.5254 in test [1] (0.1 nM); 0.9979 in test [1] (1 nM); 1.068 in test [1] (10 nM); 1.031 in test [1] (100 nM). In addition, the “relative light unit (RLU), ligand binding activity ERα” value stood at 0.005812 in test [2] (0.01 nM); 0.005926 in test [2] (0.1 nM); 0.007223 in test [2] (1 nM); 0.1184 in test [2] (10 nM); 0.423 in test [2] (100 nM).
Consider `Oc1ccc(CC(c2ccc(O)cc2)c2cocn2)cc1` (centres unmarked) [Compound 16, 4,4′-(1-(oxazol-4-yl)ethane-1,2-diyl)diphenol], for which the “relative light unit (RLU), ligand binding activity ERβ” value in test [1] (0.01 nM) is 0.0173; in test [1] (0.1 nM), 0.02216; in test [1] (1 nM), 0.01759; in test [1] (10 nM) it was 0.06729; in test [1] (100 nM) it was 0.8625. Moreover, the “relative light unit (RLU), ligand binding activity ERα” value in test [2] (0.01 nM) is 0.01424; in test [2] (0.1 nM), 0.01773; in test [2] (1 nM) it was 0.01714; in test [2] (10 nM), 0.0182; in test [2] (100 nM), 0.0245.
For the molecule `Oc1ccc(CC(c2ccc(O)cc2)C2CC2)cc1` (centres unmarked) [Compound 1, 4,4′-(1-cyclopropylethane-1,2-diyl)diphenol], the “relative light unit (RLU), ligand binding activity ERβ” value came out at 0.04726 in test [1] (1 nM), 0.7801 in test [1] (10 nM) and 0.674 in test [1] (100 nM). The “relative light unit (RLU), ligand binding activity ERα” value in test [2] (1 nM) was 0.01123; in test [2] (10 nM), 0.01001; in test [2] (100 nM) it was 0.03514.
For the molecule `Oc1ccc(CC(c2ccc(O)cc2)c2cnco2)cc1` (centres unmarked) [Compound 13, 4,4′-(1-(oxazol-5-yl)ethane-1,2-diyl)diphenol], the “relative light unit (RLU), ligand binding activity ERβ” value amounted to 0.01293 in test [1] (0.01 nM); 0.01887 in test [1] (0.1 nM); 0.02471 in test [1] (1 nM); 0.04313 in test [1] (10 nM); 0.8322 in test [1] (100 nM). In addition, the “relative light unit (RLU), ligand binding activity ERα” value came to 0.01362 in test [2] (0.01 nM); 0.006796 in test [2] (0.1 nM); 0.01285 in test [2] (1 nM); 0.01611 in test [2] (10 nM); 0.01431 in test [2] (100 nM).
As to `O=C(NC(Cc1ccc(O)cc1)c1ccc(O)cc1)C(F)(F)F` (centres unmarked) [Compound 10, N-(1,2-bis(4-hydroxyphenyl)ethyl)-2,2,2-trifluoroacetamide], the entries for the “relative light unit (RLU), ligand binding activity ERβ” value in test [1] (1 nM), in test [1] (10 nM) and in test [1] (100 nM) were 0.01539, 0.0134 and 0.2211, respectively. For the same molecule, the “relative light unit (RLU), ligand binding activity ERα” value in test [2] (1 nM) is reported as 0.008272; in test [2] (10 nM) it was 0.0163; in test [2] (100 nM) it was 0.01156.
